Laboratory results as given in EP4733306A1, “NOVEL MODIFIED TRINUCLEOTIDE CAPPING DERIVATIVE, AND MRNA INTO WHICH CAPPING DERIVATIVE IS INTRODUCED” (Elonova Co., Ltd., priority 2023, dated 2025).
“Also recorded” adds a separate entry of the source.

Columns and labels:
HEK 293 cells = experiment: Luciferase (antigen protein) expression from capped Luciferase mRNA transfected into HEK 293 cells, luminescence readout; type: cell-based
Description: HEK 293 cells were cultured in a 60 mL culture plate containing DMEM supplemented with 10% FBS and 1% pen/strep. On the day prior to transfection, the cells were detached using trypsin and resuspended in new medium. The cells were seeded into a 96-well plate. On the next day, when the cells reached 70% confluence, the transfection mixture was prepared and transfection was performed.
The purified mRNA was quantified using a nanodrop spectrophotometer, and the transcription yield for each rNTP combination was compared. For cell transfection, 500 ng of each mRNA was collected and mixed with 5 µL of Opti-MEM. Separately, 0.5 µL of Lipofectamine was mixed with 5 µL of Opti-MEM in another tube and incubated at room temperature for 10 minutes. Then, the mRNA and Lipofectamine mixtures were combined in the same tube and incubated for an additional 5 minutes at room temperature. Finally, the transfection mixture was added to the cells and incubated for 24 hours.
(§1) After the incubation period, the medium was removed, and the cells were lysed using 50 µL of 1X lysis buffer. The cell lysate was transferred into microcentrifuge tubes. For luciferase luminescence analysis, 100 µL of luciferin substrate was added to each sample in a 96-well white plate. Then, 20 µL of each cell lysate sample was added and mixed by pipetting. Finally, the luminescence of luciferase was recorded using a luminometer instrument.
HEK 293 cells were cultured in a 60 mL culture plate containing DMEM supplemented with 10% FBS and 1% pen/strep. On the day prior to transfection, the cells were detached using trypsin and resuspended in fresh medium. The cells were then seeded in a 96-well plate. On the following day, when the cells reached 70% confluence, the transfection mixture was prepared and transfection was performed.
as §1, with “taken for” for “added to”

T7 RNA polymerase = T7 RNA polymerase (Escherichia phage T7, UniProt P00573); experiment: In vitro transcription of Luciferase template with T7 RNA polymerase in the presence of the capping material (gel); type: biochemical; settings: compared with CleanCap (cap 1 commercial)
T7 RNA polymerase, sequence (P00573 whole entry): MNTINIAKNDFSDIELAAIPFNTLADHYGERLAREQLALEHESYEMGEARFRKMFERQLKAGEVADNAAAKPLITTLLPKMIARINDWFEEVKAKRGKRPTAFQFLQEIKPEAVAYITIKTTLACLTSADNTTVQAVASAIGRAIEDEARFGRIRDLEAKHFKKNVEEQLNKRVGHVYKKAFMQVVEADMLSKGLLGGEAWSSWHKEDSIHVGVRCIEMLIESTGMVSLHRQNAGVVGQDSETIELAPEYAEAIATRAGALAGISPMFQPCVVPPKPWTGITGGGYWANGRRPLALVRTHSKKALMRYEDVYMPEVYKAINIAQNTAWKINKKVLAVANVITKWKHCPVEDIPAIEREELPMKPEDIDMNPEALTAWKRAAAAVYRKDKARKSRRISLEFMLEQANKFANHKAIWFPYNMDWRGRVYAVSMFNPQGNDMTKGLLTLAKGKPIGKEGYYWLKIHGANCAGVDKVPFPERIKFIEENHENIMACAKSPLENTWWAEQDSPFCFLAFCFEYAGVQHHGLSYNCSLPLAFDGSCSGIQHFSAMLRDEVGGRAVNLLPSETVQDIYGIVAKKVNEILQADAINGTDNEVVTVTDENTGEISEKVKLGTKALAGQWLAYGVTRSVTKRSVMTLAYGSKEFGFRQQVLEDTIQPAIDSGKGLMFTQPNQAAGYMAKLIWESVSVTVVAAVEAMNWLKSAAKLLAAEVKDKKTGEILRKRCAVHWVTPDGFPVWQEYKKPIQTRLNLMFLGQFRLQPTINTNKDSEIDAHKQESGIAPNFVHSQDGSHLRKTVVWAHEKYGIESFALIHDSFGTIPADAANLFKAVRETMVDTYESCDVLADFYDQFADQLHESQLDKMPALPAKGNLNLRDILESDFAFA
Description: The concentration of the luciferase template was measured using a nanodrop spectrophotometer. For each transcription reaction, 100 ng of template in 1 µL was placed into a microcentrifuge tube. Then, 1.5 µL of 10X transcription buffer (400 mM Tris-HCl, 60 mM MgCl2, 10 mM DTT, 20 mM spermidine) and 1.5 µL of 100 mM DTT were added to the tube. rATP, rCTP, and rUTP were each used (1 µL, 10 mM). For cap-dependent transcription of luciferase, rGTP was used (1 µL, 2.5 mM). The ratio of capping material was maintained at four times higher than rGTP so as to provide mRNA capped at ≥80%. Accordingly, 1 µL of capping material (10 mM) was added. RNase inhibitor (0.5 µL, 40 U/µL) and T7 RNA polymerase (1 µL, 50 U/µL) were added. Nuclease-free water (4.5-5.5 µL) was added to bring the final volume of the reaction to 15 µL. In the case of modified rNTPs, 10 mM stock solutions were prepared and the corresponding derivatives were added in place of rCTP and rUTP. The reaction was incubated at 37°C for 1 hour, and after 1 hour, 1.8 µL of 10X DNase I buffer (10 mM Tris-HCl, 2.5 mM MgCl2, 0.5 mM CaCl2) and 1 µL of DNase I (2 U/µL) were added to the reaction and incubated for an additional 15 minutes at 37°C to remove all DNA templates.

[1] = Luciferase mRNA capped with the analog, compared with mRNA introduced with ARCA cap (cap 0) and CleanCap (cap 1 commercial), HEK 293
[2] = Luciferase mRNA capped with the analog, compared with Luciferase mRNA introduced with CleanCap (Luc mRNA Cap1)

| Compound | antigen protein expression efficiency (HEK 293 cells; [1]) | further results |
| --- | --- | --- |
| CO[C@@H]1[C@H](OP(=O)(O)OC[C@H]2O[C@@H](n3cnc4c(=O)[nH]c(N)nc43)[C@H](O)[C@@H]2O)[C@@H](COP(=O)(O)OP(O)(=S)OP(=O)(O)OC[C@H]2O[C@@H](n3c[n+](Cc4ccc(Cl)cc4)c4c(=O)[nH]c(N)nc43)[C@H](O)[C@@H]2O)O[C@H]1n1cnc2c(N)ncnc21 (single isomer, unassigned) [^4-ClBn7GppspAmpG (D1), Guanosine N7-4-Cl-benzyl β-phosphorothioate trinucleotide Cap1] | higher | – |
| CO[C@@H]1[C@H](OP(=O)(O)OC[C@H]2O[C@@H](n3cnc4c(=O)[nH]c(N)nc43)[C@H](O)[C@@H]2O)[C@@H](COP(=O)(O)OP(=O)(S)OP(=O)(O)OC[C@H]2O[C@@H](n3c[n+](Cc4ccc(Cl)cc4)c4c([O-])nc(N)nc43)[C@H](O)[C@@H]2O)O[C@H]1n1cnc2c(N)ncnc21 (single isomer, unassigned) [^4-ClBn7GppspAmpG (D2), Guanosine N7-4-Cl-benzyl β-phosphorothioate trinucleotide Cap1] | higher | – |
| CO[C@@H]1[C@H](OP(=O)(O)OC[C@H]2O[C@@H](n3cnc4c(=O)[nH]c(N)nc43)[C@H](O)[C@@H]2O)[C@@H](COP(=O)(O)OP(O)(=S)OP(=O)(O)OC[C@H]2O[C@@H](n3c[n+](Cc4ccccc4)c4c(=O)[nH]c(N)nc43)[C@H](O)[C@@H]2O)O[C@H]1n1cnc2c(N)ncnc21 (single isomer, unassigned) [^Bn7GppspAmpG (D1), Guanosine N7-benzyl β-phosphorothioate trinucleotide Cap1] | higher | – |
| CO[C@@H]1[C@H](OP(=O)(O)OC[C@H]2O[C@@H](n3cnc4c(=O)[nH]c(N)nc43)[C@H](O)[C@@H]2O)[C@@H](COP(=O)(O)OP(O)(=S)OP(=O)(O)OC[C@H]2O[C@@H](n3c[n+](Cc4ccccc4)c4c(=O)[nH]c(N)nc43)[C@H](O)[C@@H]2O)O[C@H]1n1cnc2c(N)ncnc21 (single isomer, unassigned) [^Bn7GppspAmpG (D2), Guanosine N7-benzyl β-phosphorothioate trinucleotide Cap1] | higher | – |
| CO[C@@H]1[C@H](OP(=O)(O)OC[C@H]2O[C@@H](n3cnc4c(=O)[nH]c(N)nc43)[C@H](O)[C@@H]2O)[C@@H](COP(=O)(O)OP(=O)(O)OP(=O)(O)OC[C@H]2O[C@@H](n3c[n+](Cc4ccccc4)c4c(=O)[nH]c(N)nc43)[C@H](O)[C@@H]2O)O[C@H]1n1cnc2c(N)ncnc21 [BzCap1, Guanosine N7-benzyl trinucleotide Cap1] | higher | antigen protein expression efficiency (HEK 293 cells; [2]): higher; antigen protein expression efficiency (HEK 293 cells; mRNA using natural rNTPs, compared with CleanCap, HEK 293): more efficient |
| CO[C@@H]1[C@H](OP(=O)(O)OC[C@H]2O[C@@H](n3cnc4c(=O)[nH]c(N)nc43)[C@H](O)[C@@H]2O)[C@@H](COP(=O)(O)OP(=O)(O)OP(=O)(O)OC[C@H]2O[C@@H](n3c[n+](Cc4ccccn4)c4c(=O)[nH]c(N)nc43)[C@H](O)[C@@H]2O)O[C@H]1n1cnc2c(N)ncnc21 [PyCap1, Guanosine N7-(pyridin-2-ylmethyl) trinucleotide Cap1 analog] | – | antigen protein expression efficiency (HEK 293 cells; [2]): higher; antigen protein expression efficiency (HEK 293 cells; compared with CleanCap mRNA (Luc mRNA CAP1), in both mRNA using natural rNTPs and mRNA with pseudouridine triphosphate instead of rUTP, HEK 293, 24 hours): higher; antigen protein expression efficiency (HEK 293 cells; compared with CleanCap mRNA (Luc mRNA CAP1), in both mRNA using natural rNTPs and mRNA with pseudouridine triphosphate instead of rUTP, HEK 293, 24 hours, listed as PyCapl): more efficient |
| CO[C@@H]1[C@H](OP(=O)(O)OC[C@H]2O[C@@H](n3cnc4c(=O)[nH]c(N)nc43)[C@H](O)[C@@H]2O)[C@@H](COP(=O)(O)OP(=O)(O)OP(=O)(O)OC[C@H]2O[C@@H](n3c[n+](Cc4cccs4)c4c(=O)[nH]c(N)nc43)[C@H](O)[C@@H]2O)O[C@H]1n1cnc2c(N)ncnc21 [ThioCap1, Guanosine N7-(thiophen-2-ylmethyl) trinucleotide Cap1 analog] | – | transcription efficiency (T7 RNA polymerase): similar; antigen protein expression efficiency (HEK 293 cells; [2]): higher; antigen protein expression efficiency (HEK 293 cells; compared with CleanCap mRNA (Luc mRNA CAP1), in both mRNA using natural rNTPs and mRNA with pseudouridine triphosphate instead of rUTP, HEK 293, 24 hours, listed as ThioCapl): more efficient; also recorded: higher |
| CO[C@@H]1[C@H](OP(=O)(O)OC[C@H]2O[C@@H](n3cnc4c(=O)[nH]c(N)nc43)[C@H](O)[C@@H]2O)[C@@H](COP(=O)(O)OP(=O)(O)OC[C@H]2O[C@@H](n3c[n+](Cc4ccc(Cl)cc4)c4c(=O)[nH]c(N)nc43)[C@H](O)[C@@H]2O)O[C@H]1n1cnc2c(N)ncnc21 [^4-ClBn7GppAmpG, Guanosine N7-4-Cl-benzyl trinucleotide diphosphate Cap1] | higher | – |
| CO[C@@H]1[C@H](OP(=O)(O)OC[C@H]2O[C@@H](n3cnc4c(=O)[nH]c(N)nc43)[C@H](O)[C@@H]2O)[C@@H](COP(=O)(O)OP(=O)(O)OP(=O)(O)OC[C@H]2O[C@@H](n3c[n+](Cc4ccc(Cl)cc4)c4c(=O)[nH]c(N)nc43)[C@H](O)[C@@H]2O)O[C@H]1n1cnc2c(N)ncnc21 [^4-ClBn7GpppAmpG, Guanosine N7-4-Cl-benzyl trinucleotide Cap1] | higher | – |
| CO[C@@H]1[C@H](OP(=O)(O)OC[C@H]2O[C@@H](n3cnc4c(=O)[nH]c(N)nc43)[C@H](O)[C@@H]2O)[C@@H](COP(=O)(O)OP(=O)(O)OC[C@H]2O[C@@H](n3c[n+](Cc4ccccc4)c4c(=O)[nH]c(N)nc43)[C@H](O)[C@@H]2O)O[C@H]1n1cnc2c(N)ncnc21 [^Bn7GppAmpG, Guanosine N7-benzyl trinucleotide diphosphate Cap1] | higher | – |
| CO[C@@H]1[C@H](OP(=O)(O)OC[C@H]2O[C@@H](n3cnc4c(=O)[nH]c(N)nc43)[C@H](O)[C@@H]2O)[C@@H](COP(=O)(O)OP(=O)(O)OP(=O)(O)OC[C@H]2O[C@@H](n3c[n+](Cc4ccccc4)c4c(=O)[nH]c(N)nc43)[C@H](O)[C@@H]2O)O[C@H]1n1cnc2c(NCc3ccccc3)ncnc21 [^Bn7Gppp^Bn6AmpG, Guanosine N^7, adenosine N^6-dibenzyl trinucleotide Cap1] | higher | – |
| CO[C@@H]1[C@H](OP(=O)(O)OC[C@H]2O[C@@H](n3cnc4c(=O)[nH]c(N)nc43)[C@H](O)[C@@H]2O)[C@@H](COP(=O)(O)OP(=O)(O)OP(=O)(O)OC[C@H]2O[C@@H](n3c[n+](Cc4ccccc4)c4c(=O)[nH]cnc43)[C@H](O)[C@@H]2O)O[C@H]1n1cnc2c(N)ncnc21 [^Bn7IpppAmpG, Inosine N7-benzyl trinucleotide Cap1] | higher | – |
| L-Guanosine N7-benzyl trinucleotide Cap1 [^Bn7LGpppAmpG] | higher | – |
